The source of these data is patent JP2012067022A, “ホスホマイシンを有効成分とする魚類のエドワジエラ症治療剤” (Meiji Seika Kaisha Ltd, priority 2010, dated 2012).

Assay [1] has as its system Edwardsiella tarda E08-18 strain (エドワジエラ・タルダ E08−18株). Kind of assay: Test Example 3: artificial infection treatment test (2) in red sea bream. The assay is classed as in vivo. As to conditions: for mortality rate: red sea bream juveniles (27 g), 4.6×10^6 CFU/mL per fish i.p., to day 14 after infection, untreated control 95%.
Assay [2] relates to Edwardsiella tarda (エドワジエラ・タルダ). Kind of assay: Test Example 1: in vitro antibacterial activity (MIC, Japanese Society of Chemotherapy method). It is filed as cell-based. To be noted: oxytetracycline hydrochloride-resistant strains; result in words.
Assay [3] has as its system Edwardsiella tarda E08-18 strain (エドワジエラ・タルダ E08−18株). Kind of assay: Test Example 2: artificial infection treatment test (1) in red sea bream. It is filed as in vivo. To be noted: 40 mg (potency)/kg oral in feed, 6 days.

Molecules are shown by their SMILES.

For `C[C@@H]1O[C@@H]1P(=O)(O)O` [ホスホマイシン], the “recovery of feeding activity” value is given as “塩酸オキシテトラサイクリンや無投薬の群よりも摂餌活性の回復が早まる” in assay [1] (red sea bream juveniles, 40 mg (potency)/kg oral in feed, 6 days, compared with oxytetracycline hydrochloride and untreated groups); “摂餌活性の回復が早まる” in assay [3] (red sea bream juveniles, after bacterial inoculation). The antibacterial activity entry in assay [2] was “強い抗菌活性を示す”.

As for `C[C@@H]1O[C@@H]1P(=O)(O)O` [ホスホマイシン・カルシウム, カルシウム塩], the mortality rate in assay [1] (40 mg (potency)/kg oral in feed, 6 days) is given as 25%; in assay [3] (red sea bream juveniles (29 g), 3.6×10^6 CFU/mL per fish i.p., to day 14 after infection, untreated control 95%), 10%.

As to `CN(C)[C@@H]1C(=O)C(C(N)=O)=C(O)[C@@]2(O)C(=O)C3=C(O)c4c(O)cccc4[C@@](C)(O)[C@H]3[C@H](O)[C@@H]12.Cl` [塩酸オキシテトラサイクリン], in assay [1] (50 mg (potency)/kg oral in feed, 7 days), the mortality rate is 100%.
